Values quoted from earlier work as cited in paper PMC9026741 (Bioorganic chemistry, 2020).

Biological target: T1, Nrp1 (Homo sapiens, UniProt O14786)
T1 sequence (O14786 274-586): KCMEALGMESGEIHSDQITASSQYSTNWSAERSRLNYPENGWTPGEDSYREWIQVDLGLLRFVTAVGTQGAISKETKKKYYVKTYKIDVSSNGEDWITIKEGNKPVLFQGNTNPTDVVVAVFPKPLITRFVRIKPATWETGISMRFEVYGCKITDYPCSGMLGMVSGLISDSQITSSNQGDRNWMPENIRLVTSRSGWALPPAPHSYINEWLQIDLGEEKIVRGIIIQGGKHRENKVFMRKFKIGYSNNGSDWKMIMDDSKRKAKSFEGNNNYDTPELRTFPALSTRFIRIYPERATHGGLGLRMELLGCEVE
Conditions: Nrp1 over Nrp2

ATWLPPR
preference for Nrp1: two-fold preference for Nrp1
